Measurements from US9863701B2, “Compositions and methods for atmospheric spray freeze drying” (Aerosol Therapeutics, LLC, priority 2013, dated 2018).

Experiments:
[1] = Moisture content of powder after atmospheric spray freeze drying, original equipment; type: physicochemical; settings: 15 wt % mannitol aqueous solution; dried 1 hr at around -15° C., then raised to room temperature within 30 minutes
Method: The apparatus is allowed to run for approximately 5 to 15 minutes to reach the desired temperature in the chamber 110, 210, 310 via gas cooled by a refrigeration system providing gas flow into the chamber 110 through the porous wall. The aqueous solution or suspension of the substances to be dried is then sprayed using the atomizer 102, 202, 302 and frozen simultaneously at a chosen temperature by the surrounding curtain of liquid nitrogen generated from ring nozzle 218, 318 or an equivalent such as cryogenic flow from nozzles 118 through porous sidewalls of chamber 110. The frozen powder is conveyed down to the exit filter 122, 222, 322 by the concurrent downstream flow. After spray freezing, drying begins. The frozen powder collected on the exit filter 122, 222, 322, at the bottom is dried continuously at atmospheric pressure until the target moisture of the frozen powder is removed by the cold desiccated gas stream. After atmospheric spray-freeze drying, a loose powder remains on the exit filter 122, 222, 322. This powder can easily be broken up into free flowing, dry porous particles usually of approximately the same size and shape as the original frozen droplets.
In one example, powder was produced using the method described above. […] The moisture content was measured to be only 0.9 wt %.

[2] = Moisture content of powder after ASFD run, second generation equipment; type: physicochemical; settings: 10% BGG aqueous solution, 50 ml; spray gas 5 SCFM, drying 20 SCFM; after three hours and thirty minutes
Method: A typical ASFD run to dry Bovine Gamma Globulin (BGG) was conducted per a stepwise procedure like the following example. A solution of BGG was prepared such that the BGG constituted 10% by weight of an aqueous solution. Once the inner chamber was cooled to a temperature of −140° F., 50 ml of solution was sprayed at a rate of 1 ml per second and at a pressure of 40 psi into the reactor chamber after the flow of cooling gas had been decreased to 5 SCFM. A flow rate of 20 SCFM was then set for drying. Temperature during the first hour was set at 30° F., and increased by five degrees at hour two and hour three. […] After three hours and thirty minutes the powder was removed from the chamber and tested for water content.

moisture content [1] [wt %]	Compound	moisture content [2] [%]
0.9	OC[C@@H](O)[C@@H](O)[C@H](O)[C@H](O)CO [mannitol]	–
–	Bovine Gamma Globulin [BGG]	4.2
